Test results as given in patent US20150284399A1, “PROCESSES FOR THE PREPARATION OF S1P1 RECEPTOR MODULATORS AND CRYSTALLINE FORMS THEREOF” (Arena Pharmaceuticals, Inc., priority 2010, published 2015).
Read-outs that look alike come from different tables or passages of the source.

Legend:
[1] = system: rat model for autoimmune myocarditis; settings: cited from earlier work
[2] = system: rat renal allograft model; settings: combination with mycophenolate mofetil (MMF); cited from earlier work
rat skin allograft model = settings: monotherapy; cited from earlier work
[3] = system: rat cardiac allograft model; settings: cited from earlier work
[4] = Dynamic moisture sorption (DMS); assay type: physicochemical; settings: crystalline form
Experimental: Samples are prepared for dynamic moisture-sorption analysis by placing ˜5 mg to ˜20 mg of compound in a tarred sample holder on the VTI balance. The instrument is a dynamic moisture-sorption analyzer, VTI Corporation, SGA-100. A drying step is run at 40° C. and ˜1% RH for 1 h. The isotherm temperature is 25° C. A % weight change over 10 min (5 weight readings) of dm/dt=0.010 or 2 h, whichever occurs first, is required before continuing to the next step. The water content of the sample equilibrated as described above was determined from 30% RH to 90% RH and then back down to 10% RH.

[5] = attributed to agonism of the S1P3 receptor; cited from earlier work
human islet cells = settings: cited from earlier work
[6] = unlike cyclosporin A, FK506 and RAD; cited from earlier work
keratinocytes = settings: Kim et al. 2004; cited from earlier work
S1P5 receptor = S1P5 receptor (Homo sapiens, UniProt Q9H228); settings: Chiba 2005; cited from earlier work
S1P4 receptor = target: T1, S1P4 receptor (Homo sapiens, UniProt O95977); settings: Chiba 2005; cited from earlier work
T1 sequence (O95977 1-384): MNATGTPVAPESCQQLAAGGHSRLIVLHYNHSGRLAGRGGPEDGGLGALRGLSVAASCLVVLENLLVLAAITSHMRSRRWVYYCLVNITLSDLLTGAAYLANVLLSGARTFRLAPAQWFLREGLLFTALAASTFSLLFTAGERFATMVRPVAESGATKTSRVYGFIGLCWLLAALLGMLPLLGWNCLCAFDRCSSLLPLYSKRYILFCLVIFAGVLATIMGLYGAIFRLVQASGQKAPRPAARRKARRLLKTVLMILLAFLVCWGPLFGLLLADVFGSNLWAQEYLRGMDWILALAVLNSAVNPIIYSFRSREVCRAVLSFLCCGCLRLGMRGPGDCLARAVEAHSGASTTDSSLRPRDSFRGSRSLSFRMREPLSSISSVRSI

S1P2 receptor = S1P2 receptor (Homo sapiens, UniProt O95136); settings: Chiba 2005; cited from earlier work
[7] = organ transplantation; cited from earlier work
Male BALB/c mice = assay: Mouse Peripheral Lymphocyte Lowering (PLL) assay; assay type: in vivo; settings: 0.300 mg/kg oral dose in 0.5% methyl cellulose in water; 5 hours post-dose; vs vehicle; FIG. 15
Experimental: Male BALB/c mice (Charles River Laboratories, Wilmington, Mass.) were housed four per cage and maintained in a humidity-controlled (40 to 60%) and temperature-controlled (68 to 72° F.) facility on a 12 h: 12 h light/dark cycle (lights on at 6:30 am) with free access to food (Harlan Teklad, Orange, Calif., Rodent Diet 8604) and water. Mice were allowed (approximately) one week of habituation to the animal facility before testing.
Mice were given a 0.300 mg/kg oral dose of (R)-2-(9-chloro-7-(4-isopropoxy-3-(trifluoromethyl)benzyloxy)-2,3-dihydro-1H-pyrrolo[1,2-a]indol-1-yl)acetic acid L-lysine salt or dosing vehicle (0.5% methyl cellulose in water) in a total volume of 10 mL/kg. Peripheral blood samples were collected at 5 hours post-dose. The mice were anesthetized with isoflurane and blood was collected via cardiac puncture. A complete cell count (CBC), including lymphocyte count, was obtained using a CELL-DYN® 3700 (Abbott Laboratories, Abbott Park, Ill.) instrument. Results are presented in FIG. 15, in which peripheral blood lymphocyte (PBL) count is shown for the 5 hour group.

Female C57BL/6 mice = assay: MOG-induced experimental autoimmune encephalomyelitis (EAE) in mice; assay type: in vivo, mouse; settings: oral, once a day from day 3 until day 21; 0.1, 0.3 and 1.0 mg/kg; vs vehicle; FIG. 17
vasculature = settings: Bolick et al. 2005; cited from earlier work
[8] = system: type I diabetic vascular endothelium; settings: Whetzel et al. 2006; cited from earlier work

Sequence of S1P2 receptor (O95136 whole entry): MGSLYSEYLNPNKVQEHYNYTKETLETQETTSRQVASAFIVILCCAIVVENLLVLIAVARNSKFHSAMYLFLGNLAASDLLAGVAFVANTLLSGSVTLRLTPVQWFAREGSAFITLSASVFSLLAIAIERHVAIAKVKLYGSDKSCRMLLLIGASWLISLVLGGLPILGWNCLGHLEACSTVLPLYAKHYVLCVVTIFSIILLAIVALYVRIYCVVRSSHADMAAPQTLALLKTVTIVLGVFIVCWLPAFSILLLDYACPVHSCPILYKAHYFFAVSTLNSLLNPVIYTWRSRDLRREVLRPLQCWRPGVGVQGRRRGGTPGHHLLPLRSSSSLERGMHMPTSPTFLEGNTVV
Sequence of S1P5 receptor (Q9H228 whole entry): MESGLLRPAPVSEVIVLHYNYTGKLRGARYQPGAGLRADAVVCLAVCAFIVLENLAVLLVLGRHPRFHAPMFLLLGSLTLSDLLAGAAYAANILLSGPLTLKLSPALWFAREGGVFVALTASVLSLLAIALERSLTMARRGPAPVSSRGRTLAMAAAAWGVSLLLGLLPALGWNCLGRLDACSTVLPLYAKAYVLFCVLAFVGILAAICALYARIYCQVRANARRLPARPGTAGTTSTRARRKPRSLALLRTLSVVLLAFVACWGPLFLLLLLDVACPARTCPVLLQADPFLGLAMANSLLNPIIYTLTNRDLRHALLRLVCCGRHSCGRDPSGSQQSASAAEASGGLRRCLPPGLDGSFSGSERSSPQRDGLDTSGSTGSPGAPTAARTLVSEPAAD

NC(CO)(CO)CCc1ccc(Sc2cccc(OCc3ccccc3)c2)cc1Cl [KRP-203]
therapeutic efficacy [1]: therapeutic efficacy | prolonging allograft survival [2]: therapeutic efficacy in combination with mycophenolate mofetil | prolonging allograft survival (rat skin allograft model): therapeutic efficacy for prolonging allograft survival | prolonging allograft survival ([3]; combination with cyclosporin A): synergistic combination with cyclosporin A | prolonging allograft survival ([3]; combination with mycophenolate mofetil (MMF)): therapeutic efficacy in combination with mycophenolate mofetil | prolonging allograft survival ([3]; monotherapy): therapeutic efficacy for prolonging allograft survival

CC(C)Oc1ccc(COc2ccc3c(c2)c(Cl)c2n3CC[C@@H]2CC(=O)[O-])cc1C(F)(F)F.O.[Na+] [(R)-2-(9-chloro-7-(4-isopropoxy-3-(trifluoromethyl)benzyloxy)-2,3-dihydro-1H-pyrrolo[1,2-a]indol-1-yl)acetic acid sodium salt hydrate]
DMS weight gain at about 90% relative humidity ([4]; from about 30% RH to about 90% RH at 25° C.): FIG. 9: gains about 2.5% weight at about 90% relative humidity

CC(C)Oc1ccc(COc2ccc3c(c2)c(Cl)c2n3CC[C@@H]2CC(=O)O)cc1C(F)(F)F.NCCN.O [(R)-2-(9-chloro-7-(4-isopropoxy-3-(trifluoromethyl)benzyloxy)-2,3-dihydro-1H-pyrrolo[1,2-a]indol-1-yl)acetic acid ethylenediamine salt hydrate]
DMS weight gain after adsorption cycle to about 90% RH followed by desorption cycle back to about 10% RH [4]: 25° C.; gains less than about 1.5% weight after undergoing

CCCCCCCCc1ccc(CCC(N)(CO)CO)cc1 [FTY720, fingolimod]
adverse event in clinical trials [5]: transient asymptomatic bradycardia | effects on human islet function (human islet cells): no detrimental effects on human islet function | general immunosuppression while prolonging graft survival [6]: without inducing general immunosuppression

CCCCCCCCCCCCC/C=C/[C@@H](O)[C@@H](N)COP(=O)(O)O [Compound S1P, sphingosine-1-phosphate]
keratinocyte proliferation (keratinocytes): inhibits keratinocyte proliferation

CCCCCCCCc1ccc(CCC(N)(CO)COP(=O)(O)O)cc1 (centres unmarked) [phosphorylated derivative]
agonist activity on S1P5 receptor (S1P5 receptor): agonist | agonist activity on S1P4 receptor (S1P4 receptor): agonist | agonist activity on S1P2 receptor (S1P2 receptor): not the S1P2 receptor

O=C(O)CCNCc1ccc2sc(-c3ccc(-c4ccccc4)c(C(F)(F)F)c3)cc2c1 [AUY954]
prolonging allograft survival ([3]; combination with a subtherapeutic dose of RAD001): can prolong rat cardiac allograft survival

C=CC[C@@H]1/C=C(\C)C[C@H](C)C[C@H](OC)[C@H]2O[C@@](O)(C(=O)C(=O)N3CCCC[C@H]3C(=O)O[C@H](/C(C)=C/[C@@H]3CC[C@@H](O)[C@H](OC)C3)[C@H](C)[C@@H](O)CC1=O)[C@H](C)C[C@@H]2OC [FK506]
undesirable side effects [7]: nephrotoxicity, neurotoxicity, β-cell toxicity and gastrointestinal discomfort

(R)-2-(9-Chloro-7-(4-isopropoxy-3-(trifluoromethyl)benzyloxy)-2,3-dihydro-1H-pyrrolo[1,2-a]indol-1-yl)acetic acid L-lysine salt
peripheral blood lymphocyte (PBL) lowering (lymphopenia) (Male BALB/c mice): exhibited activity for inducing PBL lowering (lymphopenia) | DMS weight gain at a 90% RH hold ([4]; 90% RH hold at 25° C.): FIG. 6: gains less than about 2.2% weight at a 90% RH hold at | DMS weight gain after adsorption cycle to about 90% RH followed by desorption cycle back to about 10% RH [4]: 25° C.; gains less than about 0.25% weight after undergoing a | reduction of the severity of disease symptoms (clinical score) in EAE (Female C57BL/6 mice): exhibits therapeutic efficacy in EAE

FC(F)(F)c1cccc(-c2noc(-c3cc(-c4ccccc4)c(C(F)(F)F)s3)n2)c1 [SEW2871]
protection against TNFα-mediated monocyte/endothelial interactions (vasculature): protects the vasculature against TNFα-mediated monocyte/endothelial interactions | proinflammatory monocyte/endothelial interactions [8]: prevents proinflammatory monocyte/endothelial interactions
